From patent publication US20090286831A1, “VR1 Receptor Ligands and u-Opioid Receptor Ligands for the Treatment of Pain” (priority 2006, published 2009)
pIC50, pKi: −log10 of the molar value. Read-outs that look alike come from different tables or passages of the source. Marks after values point to notes of the source that are not given here.

Tests used:
[1] = system: rats after spinal nerve ligature; assay: Mono-neuropathic pain after spinal nerve ligature (Chung model), electronic von Frey; type: in vivo, rat
Procedure: Sprague Dawley rats (140-160 g body weight) were used for the following animal models. Sprague Dawley rats (140-160 g body weight) from a commercial breeder (Janvier, Genest St. Isle, France) were used. The animals were kept under standard conditions: light-dark rhythm (06:00 to 18:00 h light, 18:00 to 06:00 h dark), room temperature 19-23° C., relative air humidity 45-65%, air exchange 19 times per hour, air movement <0.2 m/s, free choice of tap water and standard feed, Macrolon Type 4 cages with 5 animals per cage. The solutions of the test substances and/or vehicles (10% […], 5% Cremophor EL, 5% glucose) were administered intravenously.
Under pentobarbital narcosis (Narcoren®, […] i.p., Merial GmbH, Hallbergmoos, Germany), the L5, L6 spinal nerves were firmly bound. The left L5 and L6 spinal nerves were exposed by removing a piece of paravertebral muscle and a portion of the left spinal process of the L5 lumbar vertebral body. The L5 and L6 spinal nerves were carefully isolated and bound with a firm ligature (NC silk, black, USP 5/0, metric 1, Braun Melsungen AG, Melsungen, Germany) (Kim and Chung, An experimental model for peripheral neuropathy produced by segmental spinal nerve ligature in the rat, Pain, 50, 1992, 355-363). After haemostasis was determined, the muscle and adjacent tissue were sutured and the wound closed by metal clamps. After a one-week recovery period the animals were placed in cages with a wire base closed to the top by a plastic hood for measurement of the mechanical allodynia. The animals were kept in this cage until their explorative behaviour had decreased.
The threshold for the tactile allodynia was measured by means of an electronic von Frey anaesthesiometer (Somedic AB, Malmö, Sweden). The animals were randomly divided into groups of 10 animals. Each group received an individual dose of test substance or vehicle and the measurements were conducted 0.5 h before application and at various times after intravenous administration. Both the ipsi- and the contra-lateral rear paw were tested. The median of five stimulations gave a measured data point. The data were determined as % maximum possible effect (% MPE) from the pre-tests of the Chung individual animals (=0% MPE) and the test values of an independent sham control group (=100% MPE). The effect of the test substance and the vehicle was calculated for each measurement time (i.e. 0.5, 1 and 3 h after application) as inter-individual % MPE value. […] The corresponding threshold values are given in gram (mean±SEM).

[2] = biological target: T1, human VR1 (Homo sapiens, UniProt Q8NER1); assay: FLIPR pH assay; type: cell-based
T1 construct: expressed in transfected cells; host or cells: CHO K1 cells (ECACC), stably transfected
T1 sequence (Q8NER1 whole entry): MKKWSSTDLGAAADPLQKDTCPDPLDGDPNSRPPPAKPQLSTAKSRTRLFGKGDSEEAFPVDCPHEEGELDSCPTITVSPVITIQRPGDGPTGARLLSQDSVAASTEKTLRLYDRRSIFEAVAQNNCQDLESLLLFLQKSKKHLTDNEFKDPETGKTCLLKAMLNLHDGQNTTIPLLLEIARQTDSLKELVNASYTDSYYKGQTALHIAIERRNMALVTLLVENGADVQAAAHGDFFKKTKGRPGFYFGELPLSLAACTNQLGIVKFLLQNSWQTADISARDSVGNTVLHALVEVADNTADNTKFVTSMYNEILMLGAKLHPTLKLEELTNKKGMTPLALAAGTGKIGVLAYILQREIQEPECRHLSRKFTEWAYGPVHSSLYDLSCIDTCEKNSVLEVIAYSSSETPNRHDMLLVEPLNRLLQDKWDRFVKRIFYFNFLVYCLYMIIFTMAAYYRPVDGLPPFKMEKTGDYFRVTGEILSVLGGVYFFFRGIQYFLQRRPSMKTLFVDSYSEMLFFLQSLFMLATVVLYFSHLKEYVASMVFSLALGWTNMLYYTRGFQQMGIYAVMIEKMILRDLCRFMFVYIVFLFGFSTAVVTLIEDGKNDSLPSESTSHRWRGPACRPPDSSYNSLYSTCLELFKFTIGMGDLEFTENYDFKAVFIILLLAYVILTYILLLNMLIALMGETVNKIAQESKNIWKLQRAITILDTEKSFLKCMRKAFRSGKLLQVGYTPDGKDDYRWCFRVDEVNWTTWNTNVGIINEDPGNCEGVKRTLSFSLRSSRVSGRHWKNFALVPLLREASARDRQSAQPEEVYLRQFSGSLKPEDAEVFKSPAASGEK
Description: (§1) The agonist or antagonist effect of substances can be determined at the vanilloid receptor 1 (VR1/TRPV1) of the human and rat species with the assay described below. Accordingly, the Ca^2+ influx through the channel is quantified by means of a Ca^2+-sensitive dye (Fluo-4, Molecular Probes Europe BV, Leiden, The Netherlands) in the fluorescent imaging plate reader (FLIPR, Molecular Devices, Sunnyvale, USA).
(§2) Chinese hamster ovary cells (CHO K1 cells, ECACC, England) are stably transfected with human or rat VR1 cDNA. For functional studies these cells are plated onto poly-D-lysine-coated black 96-hole plates with a clear base (BD Biosciences, Heidelberg, Germany) in a density of 25 000 cells/cavity. The cells are incubated overnight at 37° C. with 5% CO2 in culture medium (nutrient mixture Ham's F12, Gibco Invitrogen GmbH, Karlsruhe, Germany) with 10% vol. FBS (foetal bovine serum, Gibco Invitrogen GmbH, Karlsruhe, Germany) and 18 μg/ml of L-proline (Gibco Invitrogen GmbH, Karlsruhe, Germany). On the following day, the cells are laden with 2 μM Fluo-4 and 0.01% vol. Pluronic F127 (Molecular Probes Europe BV, Leiden, The Netherlands) in HBSS buffer (Hank's buffered saline solution, Gibco Invitrogen GmbH, Karlsruhe, Germany) for 30 min at 37° C. The plates are then washed 3 times in HBSS buffer and after further incubation for 15 minutes at room temperature are placed in the FLIPR for the Ca^2+ measurement. In this case, the Ca^2+-dependent fluorescence is measured before and after the addition of substances (λex=488 nm, λem=540 nm). Quantification occurs as a result of the measurement of the highest fluorescence intensity (FC, fluorescence counts) over time.
In the pH assay, HBSS that now contains 60 mM MES instead of capsaicin is applied to human VR1-transfected CHO K1 cells (adjusted pH value of the addition solution is 4.95). Percentage inhibition and IC50 values are raised and evaluated as already described for the capsaicin test.

[3] = system: rats; assay: Tail-flick (hot beam) test in rats; type: in vivo, rat; conditions: dosage 1 mg/kg p.o.
[4] = biological target: T2, human recombinant μ-opioid receptor (Homo sapiens, UniProt P35372); assay: Ki value at the μ-opioid receptor (Experiment 4); type: binding
T2 construct: expressed in transfected cells; host or cells: CHO-K1 cells (membrane preparation)
T2 sequence (P35372 whole entry): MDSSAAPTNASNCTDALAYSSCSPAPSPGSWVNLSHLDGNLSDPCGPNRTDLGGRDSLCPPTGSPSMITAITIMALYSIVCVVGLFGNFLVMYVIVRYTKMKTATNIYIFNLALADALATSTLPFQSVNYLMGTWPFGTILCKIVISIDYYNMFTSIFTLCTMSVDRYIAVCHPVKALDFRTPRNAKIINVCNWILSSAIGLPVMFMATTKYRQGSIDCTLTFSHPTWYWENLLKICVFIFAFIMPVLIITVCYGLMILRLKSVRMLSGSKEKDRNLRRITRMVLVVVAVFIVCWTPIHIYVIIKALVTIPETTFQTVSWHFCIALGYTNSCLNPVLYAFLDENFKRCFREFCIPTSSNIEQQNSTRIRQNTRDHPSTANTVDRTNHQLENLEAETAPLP

[5] = biological target: T3, vanilloid receptor 1 (VR1/TRPV1) (Homo sapiens, UniProt Q8NER1); assay: FLIPR capsaicin assay; type: cell-based, human or rat
T3 construct: expressed in transfected cells; host or cells: CHO K1 cells (ECACC), stably transfected
T3 sequence (Q8NER1 whole entry): as the sequence (Q8NER1 whole entry) above
Description: as §1, §2
The FLIPR protocol consists of 2 substance additions. Test substances (10 μM) are firstly pipetted onto the cells and the Ca^2+ influx is compared to the control (capsaicin 10 μM). This gives the specification in % activation in relation to the Ca^2+ signal after adding 10 μM of capsaicin. After 5 minutes incubation 100 nM of capsaicin are applied and the influx of Ca^2+ likewise determined. Desensitising agonists and antagonists lead to a suppression of the Ca^2+ influx. Inhibition values [%] are calculated in comparison to the maximum achievable inhibition with a saturating concentration of […] or another reference antagonist. The test substance is added in different concentrations to determine the IC50 and functional Ki value ((f)Ki). Triple determinations (n=3) are conducted and these are repeated in at least one further independent experiment (N>=2). A capsaicin dose action curve is generated to incorporate the thus determined EC50 values into the associated (f)Ki determination. EC50/IC50 values are calculated using ‘Prism4’ software from GraphPad Software™ or with XLfit4™ (ID Business Solutions Ltd.). (f)Ki values are calculated in accordance with the modified Cheng-Prusoff equation (Cheng, Prusoff; Biochem. Pharmacol. 22, 3099-3108, 1973). Testing for non-specific inhibition of the fluorescence as a result of the substances is conducted by activating wild type CHO K1 cells incubated with the same test substances with ATP (10 μM final concentration).

[6] = AMG 517 2.5 mg/kg i.v. group, Control (pre-test 0.5 h before application)
[7] = AMG 517 2.5 mg/kg i.v., 180 min
[8] = Oxycodone 2.5 mg/kg i.v. group, Control (pre-test 0.5 h before application)
[9] = Oxycodone 2.5 mg/kg i.v., 30 min
[10] = Oxycodone 2.5 mg/kg i.v., 60 min
[11] = Oxycodone 2.5 mg/kg i.v., 180 min
[12] = Oxycodone 5 mg/kg i.v. group, Control (pre-test 0.5 h before application)
[13] = Oxycodone 5 mg/kg i.v., 180 min
[14] = functional Ki, capsaicin 100 nM, VR1-transfected CHO K1 cells, modified Cheng-Prusoff, read-out: f(Ki) (VR1)
[15] = human VR1-transfected CHO K1 cells, 60 mM MES, pH 4.95, read-out: IC50 (pH)
[16] = read-out: % inhibition (pH assay)

Structure (SMILES): CC(=O)Nc1nc2c(Oc3cc(-c4ccc(C(F)(F)F)cc4)ncn3)cccc2s1 [AMG 517]
- pull-away threshold value, contra-lateral rear paw, mean [1, 6]: 49.9 gram
- pull-away threshold value, ipsi-lateral rear paw, mean [1, 6]: 20.6 gram
- pull-away threshold value, contra-lateral rear paw, mean ([1]; AMG 517 2.5 mg/kg i.v., 30 min): 50.9 gram
- pull-away threshold value, ipsi-lateral rear paw, mean ([1]; AMG 517 2.5 mg/kg i.v., 30 min): 29.2 gram
- pull-away threshold value, contra-lateral rear paw, mean ([1]; AMG 517 2.5 mg/kg i.v., 60 min): 49.6 gram
- pull-away threshold value, ipsi-lateral rear paw, mean ([1]; AMG 517 2.5 mg/kg i.v., 60 min): 21.1 gram
- pull-away threshold value, contra-lateral rear paw, mean [1, 7]: 51.7 gram
- pull-away threshold value, ipsi-lateral rear paw, mean [1, 7]: 20.7 gram

Structure (SMILES): COc1ccc2c3c1O[C@H]1C(=O)CC[C@@]4(O)[C@@H](C2)N(C)CC[C@]314 [Oxycodone, oxycodone]
- pull-away threshold value, contra-lateral rear paw, mean [1, 8]: 54.0 gram
- pull-away threshold value, ipsi-lateral rear paw, mean [1, 8]: 21.0 gram
- pull-away threshold value, contra-lateral rear paw, mean [1, 9]: 67.8 gram
- pull-away threshold value, ipsi-lateral rear paw, mean [1, 9]: 38.2 gram
- pull-away threshold value, contra-lateral rear paw, mean [1, 10]: 53.1 gram
- pull-away threshold value, ipsi-lateral rear paw, mean [1, 10]: 28.0 gram
- pull-away threshold value, contra-lateral rear paw, mean [1, 11]: 52.5 gram
- pull-away threshold value, ipsi-lateral rear paw, mean [1, 11]: 21.9 gram
- pull-away threshold value, contra-lateral rear paw, mean [1, 12]: 52.6 gram
- pull-away threshold value, ipsi-lateral rear paw, mean [1, 12]: 22.8 gram
- pull-away threshold value, contra-lateral rear paw, mean ([1]; Oxycodone 5 mg/kg i.v., 30 min): 70.0 gram
- pull-away threshold value, ipsi-lateral rear paw, mean ([1]; Oxycodone 5 mg/kg i.v., 30 min): 41.9 gram
- pull-away threshold value, contra-lateral rear paw, mean ([1]; Oxycodone 5 mg/kg i.v., 60 min): 56.4 gram
- pull-away threshold value, ipsi-lateral rear paw, mean ([1]; Oxycodone 5 mg/kg i.v., 60 min): 32.1 gram
- pull-away threshold value, contra-lateral rear paw, mean [1, 13]: 51.4 gram
- pull-away threshold value, ipsi-lateral rear paw, mean [1, 13]: 22.0 gram
- efficacy (conclusion) ([1]; combination of two threshold doses of the same opioid, pull away increased on ipsi- and contra-lateral paw): additive antinociceptive efficacy

Structure (SMILES): CC(C(=O)NCc1ccc(C(F)(F)F)nc1N1CCC(c2ccccc2)(N(C)C)CC1)c1ccc(NS(C)(=O)=O)c(F)c1 (centres unmarked) [[1], N-((2-(4-(dimethylamino)-4-phenylpiperidin-1-yl)-6-(trifluoromethyl)pyridin-3-yl)methyl)-2-(3-fluoro-4-(methylsulfonamido)phenyl)propanamide]
- pIC50 [2]: 6.09
- Tail-Flick [% MPE] [3]: 50%^2) % MPE
- pKi [4]: 7.34
- pKi [5, 14]: 7.50

Structure (SMILES): CC(C(=O)NCc1ccc(C(C)(C)C)nc1N1CCC(c2ccccc2)(N(C)C)CC1)c1ccc(NS(C)(=O)=O)c(F)c1 (centres unmarked) [[2], N-((6-tert-butyl-2-(4-(dimethylamino)-4-phenylpiperidin-1-yl)pyridin-3-yl)methyl)-2-(3-fluoro-4-(methylsulfonamido)phenyl)propanamide]
- pIC50 [2, 15]: 6.43
- pKi [4]: 6.46
- pKi [5]: 8.43

Structure (SMILES): CC(C(=O)NCc1ccc(C(F)(F)F)nc1N1CCC(c2cccs2)(N(C)C)CC1)c1ccc(NS(C)(=O)=O)c(F)c1 (centres unmarked) [[3], N-((2-(4-(dimethylamino)-4-(thiophen-2-yl)piperidin-1-yl)-6-(trifluoromethyl)pyridin-3-yl)methyl)-2-(3-fluoro-4-(methylsulfonamido)phenyl)propanamide]
- pIC50 [2, 15]: 6.47
- pKi [4]: 6.92
- pKi [5]: 7.96

Structure (SMILES): CC(C(=O)NCc1ccc(C(F)(F)F)nc1N1CCC(Cc2ccccc2)(N(C)C)CC1)c1ccc(NS(C)(=O)=O)c(F)c1 (centres unmarked) [[5], N-((2-(4-benzyl-4-(dimethylamino)piperidin-1-yl)-6-(trifluoromethyl)pyridin-3-yl)methyl)-2-(3-fluoro-4-(methylsulfonamido)phenyl)propanamide]
- pIC50 [2, 15]: 6.95
- pKi [4]: 6.15
- pKi [5]: 8.20

Structure (SMILES): CC(C(=O)NCc1ccc(C(C)(C)C)nc1N1CCC(Cc2ccccc2)(N(C)C)CC1)c1ccc(NS(C)(=O)=O)c(F)c1 (centres unmarked) [[6], N-((2-(4-benzyl-4-(dimethylamino)piperidin-1-yl)-6-tert-butylpyridin-3-yl)methyl)-2-(3-fluoro-4-(methylsulfonamido)phenyl)propanamide]
- pIC50 [2, 15]: 5.87
- pKi [4]: 5.50
- pKi [5]: 8.59

Structure (SMILES): Cc1cc(C(C)C(=O)NCc2ccc(C(F)(F)F)cc2N2CCC(Cc3ccccc3)(N(C)C)CC2)ccc1NS(C)(=O)=O (centres unmarked) [[8], N-(2-(4-benzyl-4-(dimethylamino)piperidin-1-yl)-4-(trifluoromethyl)benzyl)-2-(3-methyl-4-(methylsulfonamido)phenyl)propanamide]
- inhibition at 1 µM [2, 16]: 19%
- inhibition at 5 µM [2, 16]: 36%
- inhibition at 10 µM [2, 16]: 58%
- pKi [4]: 7.66
- pKi [5, 14]: 8.60

Structure (SMILES): CC(C(=O)NCc1ccc(C(F)(F)F)nc1N1CCC(Cc2cccc(F)c2)(N(C)C)CC1)c1ccc(NS(C)(=O)=O)c(F)c1 (centres unmarked) [[9], N-((2-(4-(dimethylamino)-4-(3-fluorobenzyl)piperidin-1-yl)-6-(trifluoromethyl)pyridin-3-yl)methyl)-2-(3-fluoro-4-(methylsulfonamido)phenyl)propanamide]
- pIC50 [2, 15]: 6.84
- pKi [4]: 5.68
- pKi [5]: 8.62

Structure (SMILES): Cc1cc(C(C)C(=O)NCc2ccc(C(F)(F)F)cc2N2CCC(Cc3cccc(F)c3)(N(C)C)CC2)ccc1NS(C)(=O)=O (centres unmarked) [[11], N-(2-(4-(dimethylamino)-4-(3-fluorobenzyl)piperidin-1-yl)-4-(trifluoromethyl)benzyl)-2-(3-methyl-4-(methylsulfonamido)phenyl)propanamide]
- inhibition at 5 µM [2, 16]: 35%
- inhibition at 10 µM [2, 16]: 38%
- pKi [4]: 7.30
- pKi [5, 14]: 8.80
